Laboratory results published in DBAASP.
Converted amounts (≈) assume the structure as drawn.

Experiments:
Assay in all cases: ≥ marks a high value that may be exact or a test limit, other limits are often not marked, values filed in µg/mL are converted to µM
[1] = tested on: Escherichia coli ATCC 25922
[2] = tested on: Salmonella enterica serovar Typhimurium
[3] = tested on: Staphylococcus aureus ATCC 25923
[4] = tested on: Pseudomonas aeruginosa PAO1
[5] = tested on: Staphylococcus epidermidis KCTC 1917
[6] = tested on: Salmonella typhimurium KCTC 1926
[7] = tested on: Escherichia coli KCTC 1682
[8] = tested on: Staphylococcus aureus KCTC 1621
[9] = tested on: Bacillus subtilis KCTC 3068
[10] = tested on: Pseudomonas aeruginosa KCTC 1637
[11] = tested on: Pseudomonas aeruginosa ATCC 27853
[12] = tested on: Staphylococcus aureus ATCC 6538
[13] = tested on: Escherichia coli K-12
[14] = tested on: Escherichia coli DH5alpha
[15] = tested on: Bacillus subtilis
[16] = tested on: Escherichia coli NCTC 10418
[17] = tested on: Klebsiella pneumoniae
[18] = tested on: Candida albicans
[19] = tested on: Pseudomonas aeruginosa ATCC 9027
[20] = tested on: Candida albicans ATCC 10231

CC[C@H](C)[C@H](NC(=O)[C@H](CCCN=C(N)N)NC(=O)[C@H](Cc1c[nH]c2ccccc12)NC(=O)[C@H](CS)NC(=O)[C@@H](N)C(C)C)C(=O)N[C@@H](CCCN=C(N)N)C(=O)N[C@H](C(=O)N[C@@H](C)C(=O)N[C@H](C(=O)N[C@H](C(=O)N[C@@H](CCCN=C(N)N)C(=O)N[C@@H](C)C(=O)O)[C@@H](C)CC)C(C)C)C(C)C [VCWRIRVAVIRA] was tested, and the MIC [1] was 44.4 µM (≈ 64 µg/mL), the MIC [2] was ≥ 44.4 µM and the MIC [3] was 22.2 µM (≈ 32 µg/mL). For the same compound, the MIC [4] was 44.4 µM (≈ 64 µg/mL).

Work on CC[C@H](C)[C@H](NC(=O)[C@H](CCCN=C(N)N)NC(=O)[C@H](Cc1c[nH]c2ccccc12)NC(=O)[C@H](CC(C)C)NC(=O)[C@@H](N)CCCN=C(N)N)C(=O)N[C@H](C(=O)N[C@H](C(=O)N[C@H](C(=O)N[C@@H](CCCN=C(N)N)C(=O)N[C@H](C(=O)N[C@@H](Cc1c[nH]c2ccccc12)C(=O)N[C@@H](CCCN=C(N)N)C(N)=O)C(C)C)[C@@H](C)CC)C(C)C)C(C)C [RLWRIVVIRVWR] yielded an MIC [5] of 15.1 µM (≈ 25 µg/mL), an MIC [6] of 15.1 µM (≈ 25 µg/mL) and an MIC [7] of 30.3 µM (≈ 50 µg/mL). The MIC [8] was 15.1 µM (≈ 25 µg/mL), the MIC [9] was 30.3 µM (≈ 50 µg/mL) and the MIC [10] was 15.1 µM (≈ 25 µg/mL).

With CC[C@H](C)[C@H](NC(=O)[C@H](CCCCN)NC(=O)[C@H](CCCCN)NC(=O)[C@H](Cc1ccccc1)NC(=O)[C@H](C)NC(=O)[C@H](CCCCN)NC(=O)[C@H](Cc1c[nH]c2ccccc12)NC(=O)[C@@H](N)CCCCN)C(=O)N[C@@H](CCC(=O)O)C(=O)N[C@@H](CCCCN)C(=O)N[C@@H](CCSC)C(=O)N[C@H](C(=O)N[C@@H](CCCN=C(N)N)C(=O)N[C@@H](CC(N)=O)C(=O)N[C@H](C(=O)N[C@@H](CCCN=C(N)N)C(=O)N[C@@H](CC(N)=O)C(=O)N[C@@H](CCCCN)C(=O)N[C@H](C(=O)N[C@H](C(=O)N[C@@H](CCCCN)C(N)=O)C(C)C)[C@@H](C)CC)[C@@H](C)CC)[C@@H](C)CC [KWKAFKKIEKMIRNIRNKIVK] the MIC [11] was > 3 µM, the MIC [12] was > 12 µM and the MIC [13] was 3 µM (≈ 8.01 µg/mL).

CC[C@H](C)[C@H](NC(=O)[C@H](Cc1ccccc1)NC(=O)[C@@H](NC(=O)[C@H](C)NC(=O)[C@H](CCCN=C(N)N)NC(=O)[C@H](CCCCN)NC(=O)[C@H](CCCN=C(N)N)NC(=O)[C@H](CCCCN)NC(=O)[C@H](C)NC(=O)[C@H](CC(C)C)NC(=O)[C@@H](NC(=O)[C@@H](N)Cc1ccc(O)cc1)C(C)C)[C@@H](C)CC)C(=O)O [YVLAKRKRAIFI] was tested, and the MIC [14] was ≥ 200 µM, the MIC [11] was > 200 µM and the MIC [3] was > 200 µM. For the same compound, the MIC [15] was ≥ 200 µM.

CC[C@H](C)[C@H](NC(=O)CNC(=O)[C@@H]1CCCN1C(=O)[C@@H]1CCCN1C(=O)[C@H](Cc1ccccc1)NC(=O)[C@H](Cc1ccccc1)NC(=O)[C@@H]1CCCN1C(=O)[C@H](Cc1ccccc1)NC(=O)[C@@H](N)CO)C(=O)N[C@H]1CSSC[C@@H](C(=O)O)NC(=O)[C@H](CCCN=C(N)N)NC(=O)[C@H](CCCCN)NC(=O)[C@H](CC(C)C)NC(=O)[C@H](CCCN=C(N)N)NC(=O)[C@H](CCCCN)NC1=O [SFPFFPPGICKRLKRC] was tested, and the MIC [16] was ≥ 35 µM.

CC[C@H](C)[C@H](NC(=O)CNC(=O)[C@H](CC(N)=O)NC(=O)[C@@H](NC(=O)[C@H](C)NC(=O)[C@H](CC(N)=O)NC(=O)[C@H](CC(C)C)NC(=O)[C@H](C)NC(=O)[C@H](C)NC(=O)[C@H](CCCN=C(N)N)NC(=O)CNC(=O)[C@H](C)NC(=O)[C@H](C)NC(=O)[C@H](C)NC(=O)[C@H](C)NC(=O)[C@H](CCSC)NC(=O)[C@H](CC(=O)O)NC(=O)[C@H](CCCCN)NC(=O)[C@@H](NC(=O)[C@H](CO)NC(=O)[C@H](CO)NC(=O)[C@H](Cc1c[nH]c2ccccc12)NC(=O)[C@H](CC(C)C)NC(=O)[C@@H](N)CO)[C@@H](C)CC)C(C)C)C(=O)N[C@H](C(=O)N[C@@H](CC(N)=O)C(=O)N1CCC[C@H]1C(N)=O)C(C)C [SLWSSIKDMAAAAGRAALNAVNGIVNP] was tested, and the MIC [1] was 47.5 µM (≈ 128 µg/mL), the MIC [17] was > 190 µM and the MIC [3] was 190 µM (≈ 512 µg/mL). For the same compound, the MIC [18] was > 190 µM.

With CC[C@H](C)[C@H](NC(=O)[C@H](CCCN=C(N)N)NC(=O)[C@H](CCC(N)=O)NC(=O)[C@@H](NC(=O)[C@@H](NC(=O)[C@H](CCCN=C(N)N)NC(=O)[C@H](CCCCN)NC(=O)[C@H](Cc1ccccc1)NC(=O)[C@H](CC(=O)O)NC(=O)CNC(=O)[C@H](CC(C)C)NC(=O)[C@@H](N)CC(C)C)[C@@H](C)CC)C(C)C)C(=O)N[C@@H](CCCCN)C(=O)N[C@@H](CC(=O)O)C(=O)N[C@@H](Cc1ccccc1)C(N)=O [LLGDFKRIVQRIKDF] the MIC [13] was ≥ 250 µM.

Compound NCCCC[C@H](NC(=O)[C@H](CCCCN)NC(=O)[C@H](Cc1c[nH]c2ccccc12)NC(=O)[C@H](CCCCN)NC(=O)[C@@H]1CCCN1C(=O)[C@H](Cc1c[nH]c2ccccc12)NC(=O)[C@H](Cc1c[nH]c2ccccc12)NC(=O)[C@@H]1CCCN1C(=O)[C@H](CCCCN)NC(=O)[C@H](Cc1c[nH]c2ccccc12)NC(=O)[C@H](Cc1c[nH]c2ccccc12)NC(=O)[C@@H]1CCCN1C(=O)[C@H](CCCCN)NC(=O)[C@@H](N)CCCCN)C(=O)O [KKPWWKPWWPKWKK] has an MIC [5] of 1 µM (≈ 2.01 µg/mL), an MIC [6] of 2 µM (≈ 4.02 µg/mL) and an MIC [7] of 2 µM (≈ 4.02 µg/mL). For the same compound, the MIC [8] was 2 µM (≈ 4.02 µg/mL), the MIC [9] was 1 µM (≈ 2.01 µg/mL) and the MIC [10] was 4 µM (≈ 8.04 µg/mL).

For CC[C@H](C)[C@H](NC(=O)[C@H](C)NC(=O)[C@H](CCCCN)NC(=O)[C@H](C)NC(=O)[C@H](CCSC)NC(=O)CNC(=O)CNC(=O)[C@H](CC(C)C)NC(=O)[C@@H](NC(=O)[C@@H](NC(=O)[C@H](CC(N)=O)NC(=O)CNC(=O)[C@H](CCSC)NC(=O)[C@H](CCCN=C(N)N)NC(=O)[C@H](CCC(=O)O)NC(=O)[C@H](CC(=O)O)NC(=O)[C@@H](NC(=O)[C@H](CCCCN)NC(=O)[C@H](CCCCN)NC(=O)[C@H](CCC(N)=O)NC(=O)[C@@H](NC(=O)[C@H](CCCCN)NC(=O)[C@H](CCC(=O)O)NC(=O)[C@H](CCC(=O)O)NC(=O)[C@H](CC(N)=O)NC(=O)[C@@H](NC(=O)[C@H](Cc1c[nH]c2ccccc12)NC(=O)CN)[C@@H](C)CC)[C@@H](C)CC)[C@@H](C)CC)[C@@H](C)O)C(C)C)C(=O)N[C@H](C(=O)N[C@@H](Cc1cnc[nH]1)C(=O)N[C@@H](CCCCN)C(=O)N[C@@H](CCSC)C(=O)N[C@@H](C)C(=O)N[C@@H](CCCCN)C(=O)N[C@@H](CC(N)=O)C(=O)N[C@@H](CCC(=O)O)C(=O)N[C@@H](Cc1ccccc1)C(=O)N[C@@H](CCC(N)=O)C(=O)N[C@H]1CSSC[C@@H]2NC(=O)[C@H](Cc3ccc(O)cc3)NC(=O)CNC(=O)[C@H](CCCCN)NC(=O)[C@H](CCC(=O)O)NC(=O)CNC(=O)[C@H](CO)NC(=O)[C@H]([C@@H](C)O)NC(=O)[C@H](CCC(N)=O)NC(=O)[C@@H]3CSSC[C@@H](C(=O)NCC(=O)N[C@H](C(=O)N4CCC[C@H]4C(=O)N[C@@H](CC(C)C)C(=O)N[C@@H](CO)C(=O)N[C@@H](Cc4ccc(O)cc4)C(=O)O)[C@@H](C)O)NC(=O)[C@H](CCCCN)NC(=O)[C@H](CSSC[C@H](NC(=O)[C@H](CC(N)=O)NC(=O)CNC(=O)[C@H](CC(C)C)NC(=O)[C@H](CCSC)NC(=O)[C@H](CC(=O)O)NC(=O)[C@H](CCSC)NC(=O)[C@H](CC(N)=O)NC(=O)[C@H](C)NC(=O)[C@H](CCSC)NC1=O)C(=O)N[C@@H](CCC(=O)O)C(=O)N[C@@H](CCCCN)C(=O)N[C@@H](Cc1cnc[nH]1)C(=O)N3)NC(=O)[C@H](CCCCN)NC(=O)[C@H]([C@@H](C)O)NC(=O)CNC(=O)[C@H](Cc1cnc[nH]1)NC2=O)C(C)C [GWINEEKIQKKIDERMGNTVLGGMAKAIVHKMAKNEFQCMANMDMLGNCEKHCQTSGEKGYCHGTKCKCGTPLSY], the MIC [17] was 10 µM (≈ 83.5 µg/mL) and the MIC [15] was 1 µM (≈ 8.35 µg/mL).

Compound N[C@@H](CC(=O)O)C(=O)N[C@@H](CC(=O)O)C(=O)N[C@@H](CC(=O)O)C(=O)N[C@@H](Cc1ccc(O)cc1)C(=O)O [DDDY] has an MIC [19] of 68700 µM (≈ 36200 µg/mL), an MIC [1] of 8580 µM (≈ 4520 µg/mL) and an MIC [20] of 4290 µM (≈ 2260 µg/mL).

Compound CC[C@H](C)[C@H](N)C(=O)N[C@@H](CC(C)C)C(=O)NCC(=O)N[C@@H](CCCCN)C(=O)N[C@H](C(=O)N[C@@H](CC(C)C)C(=O)N[C@@H](CCCCN)C(=O)NCC(=O)N[C@H](C(=O)N[C@@H](CCCCN)C(=O)N[C@@H](CCCCN)C(=O)N[C@@H](CC(C)C)C(=O)N[C@@H](Cc1ccccc1)C(N)=O)[C@@H](C)CC)[C@@H](C)CC [ILGKILKGIKKLF] has an MIC [5] of 1 µM (≈ 1.47 µg/mL), an MIC [6] of 1 µM (≈ 1.47 µg/mL) and an MIC [7] of 2 µM (≈ 2.94 µg/mL). The MIC [8] was 2 µM (≈ 2.94 µg/mL) and the MIC [10] was 2 µM (≈ 2.94 µg/mL).
